Data set [1] is described as follows: Cytotoxicity against mouse BV2 cells assessed as cell viability by cytotox nonradioactive assay. It is filed as cell-based. Particulars: bv-2.
Data set [2] deals with mGluR5. Briefly: Selectivity index, ratio of cytotoxicity for mouse BV2 cells to IC50 for mGluR5 in mouse BV2 cells. The data set is classed as toxicity, cell-based, BV-2. The conditions noted are these: read-out: Selectivity Index.
Data set [3] has as its target Metabotropic glutamate receptor 5 (Mus musculus, UniProt Q3UVX5). Briefly: Positive allosteric modulation at mGluR5 in mouse BV2 cells assessed as inhibition of LPS-induced NO production incubated for 1 hr prior to LPS challenge measured after 24 hrs by Griess assay. It is filed as cell-based, BV-2. A general note: The Griess reaction detects nitrite, a stable product of nitric oxide.

Sequence of Metabotropic glutamate receptor 5 (Q3UVX5 whole entry): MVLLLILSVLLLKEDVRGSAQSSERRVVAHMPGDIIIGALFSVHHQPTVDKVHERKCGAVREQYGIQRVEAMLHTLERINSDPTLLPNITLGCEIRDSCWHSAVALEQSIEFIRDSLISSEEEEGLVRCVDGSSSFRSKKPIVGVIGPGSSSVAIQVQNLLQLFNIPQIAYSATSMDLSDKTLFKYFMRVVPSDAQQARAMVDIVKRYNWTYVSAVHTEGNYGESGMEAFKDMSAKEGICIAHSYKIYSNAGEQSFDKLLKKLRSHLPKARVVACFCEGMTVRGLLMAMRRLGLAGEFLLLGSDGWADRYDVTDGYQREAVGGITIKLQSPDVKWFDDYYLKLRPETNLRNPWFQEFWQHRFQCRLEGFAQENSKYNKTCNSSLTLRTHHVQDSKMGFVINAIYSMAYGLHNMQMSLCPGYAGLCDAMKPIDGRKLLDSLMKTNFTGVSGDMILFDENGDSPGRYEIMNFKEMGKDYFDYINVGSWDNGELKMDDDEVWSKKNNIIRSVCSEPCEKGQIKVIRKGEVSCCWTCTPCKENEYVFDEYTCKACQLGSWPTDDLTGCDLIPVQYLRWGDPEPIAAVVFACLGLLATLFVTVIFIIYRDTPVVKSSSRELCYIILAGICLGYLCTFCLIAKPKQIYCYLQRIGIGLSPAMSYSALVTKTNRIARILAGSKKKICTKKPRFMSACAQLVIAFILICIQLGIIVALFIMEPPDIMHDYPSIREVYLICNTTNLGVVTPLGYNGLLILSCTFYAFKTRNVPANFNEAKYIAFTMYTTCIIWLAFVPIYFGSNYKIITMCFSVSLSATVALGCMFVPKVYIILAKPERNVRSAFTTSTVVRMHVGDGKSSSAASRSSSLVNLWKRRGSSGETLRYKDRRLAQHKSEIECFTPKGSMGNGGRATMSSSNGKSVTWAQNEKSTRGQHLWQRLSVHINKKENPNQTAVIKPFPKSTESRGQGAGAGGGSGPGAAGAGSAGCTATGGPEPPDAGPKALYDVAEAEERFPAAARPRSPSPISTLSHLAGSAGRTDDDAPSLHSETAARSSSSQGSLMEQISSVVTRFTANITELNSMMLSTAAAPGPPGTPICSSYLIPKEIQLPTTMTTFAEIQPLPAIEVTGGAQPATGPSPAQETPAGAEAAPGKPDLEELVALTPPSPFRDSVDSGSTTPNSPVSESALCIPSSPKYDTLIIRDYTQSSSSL

Turning to `Fc1cccc(/C=N/N=C/c2cccc(F)c2)c1`, the Cytotoxic concentration in data set [1] was found to be 500 µM.

For `O=C(Nc1ccccc1F)[C@H]1C[C@@H]1c1cccc(F)c1` (racemic), the selectivity ratio in data set [2] is 4.76. For the same compound, in data set [3], the concentration for half-maximal inhibition (IC50) (in general, the concentration at which inhibition is half-maximal) stood at 210 µM. For the same compound, the Cytotoxic concentration in data set [1] amounted to 1000 µM.

As to `O=C(Nc1ccc(F)cc1)[C@H]1C[C@@H]1c1cccc(F)c1` (racemic), in data set [2], the selectivity ratio worked out at 6.25. Also, in data set [3], the IC50 stood at 160 µM. Moreover, the Cytotoxic concentration in data set [1] stood at 1000 µM.

Take `O=C(Nc1ccccc1Cl)[C@H]1C[C@@H]1c1cccc(F)c1` (racemic): in data set [2], the selectivity ratio was determined as 5.68. The IC50 in data set [3] amounted to 180 µM. The Cytotoxic concentration in data set [1] was found to be 1000 µM.

Regarding `COc1cc(Br)ccc1NC(=O)[C@H]1C[C@@H]1c1cccc(F)c1` (racemic), in data set [2], the selectivity ratio was 21.8. For the same compound, the 50% inhibitory concentration (IC50) in data set [3] turned out to be 46 µM. Also, in data set [1], the Cytotoxic concentration amounted to 1000 µM.

As to `O=C(Nc1nc2ccccc2s1)[C@H]1C[C@@H]1c1cccc(F)c1` (racemic), in data set [2], the selectivity ratio was found to be 6.49. Besides, the IC50 in data set [3] was determined as 46 µM. Further, the Cytotoxic concentration in data set [1] came to 300 µM.

`O=C(Nc1nc2ccccc2[nH]1)[C@H]1C[C@@H]1c1cccc(F)c1` (racemic): in data set [2], the selectivity ratio was 14.6. Further, in data set [3], the IC50 was 21 µM. In addition, the Cytotoxic concentration in data set [1] turned out to be 300 µM.

With `COc1cc(Br)ccc1NC(=O)[C@H]1C[C@@H]1c1cccc(Cl)c1` (racemic), the selectivity ratio in data set [2] is 4.37. For the same compound, the IC50 in data set [3] was found to be 230 µM. The Cytotoxic concentration in data set [1] worked out at 1000 µM.

With `O=C(Nc1nc2ccccc2[nH]1)[C@H]1C[C@@H]1c1cccc(Cl)c1` (racemic), in data set [2], the selectivity ratio was 5.96. Besides, the IC50 in data set [3] was found to be 67 µM. Moreover, the Cytotoxic concentration in data set [1] is 400 µM.

`O=C(N[C@H]1C[C@@H]1c1cccc(F)c1)c1cccc(F)c1` (racemic): in data set [2], the selectivity ratio amounted to 33. For the same compound, the IC50 in data set [3] came to 30 µM. In addition, in data set [1], the Cytotoxic concentration stood at 1000 µM.

In the case of `O=C(N[C@H]1C[C@@H]1c1cccc(F)c1)c1cccc([N+](=O)[O-])c1` (racemic), in data set [2], the selectivity ratio was found to be 3.01. Moreover, in data set [3], the IC50 was determined as 130 µM. In addition, the Cytotoxic concentration in data set [1] stood at 400 µM.

As to `O=C(N[C@H]1C[C@@H]1c1cccc(F)c1)c1ccc([N+](=O)[O-])cc1` (racemic), in data set [2], the selectivity ratio came out at 1.02. Also, the IC50 in data set [3] turned out to be 200 µM. Further, the Cytotoxic concentration in data set [1] was found to be 200 µM.

As for `O=C(N[C@H]1C[C@@H]1c1cccc(F)c1)c1ccccn1` (racemic), the selectivity ratio in data set [2] came out at 4.6. For the same compound, the IC50 in data set [3] was determined as 170 µM. In data set [1], the Cytotoxic concentration turned out to be 800 µM.

Take `O=C(Nc1ccc(F)cc1)[C@H]1C[C@@H]1c1cccc(Cl)c1` (relative stereo): in data set [2], the selectivity ratio stood at 17.4. For the same compound, in data set [3], the IC50 turned out to be 58 µM. Further, the Cytotoxic concentration in data set [1] was found to be 1000 µM.

As for `O=C(Nc1ccccc1Cl)[C@H]1C[C@@H]1c1cccc(Cl)c1` (relative stereo), in data set [2], the selectivity ratio turned out to be 14.1. For the same compound, the IC50 in data set [3] amounted to 71 µM. Further, the Cytotoxic concentration in data set [1] worked out at 1000 µM.

With `O=C(N[C@H]1C[C@@H]1c1cccc(F)c1)c1cccc(Cl)c1` (relative stereo), in data set [2], the selectivity ratio was 5.03. Further, the IC50 in data set [3] is 200 µM. Besides, the Cytotoxic concentration in data set [1] worked out at 1000 µM.

The values above are taken from ChEMBL document CHEMBL3421575, “Cyclopropyl-containing positive allosteric modulators of metabotropic glutamate receptor subtype 5” (Bioorg Med Chem Lett, 2015).
